Data as given in PMC5733478, “A Non-imaging High Throughput Approach to Chemical Library Screening at the Unmodified Adenosine-A3 Receptor in Living Cells” (Frontiers in Pharmacology, 2017).
Counter-ions that a name gives are not always drawn.

biological target: T1, human A3AR (Homo sapiens, UniProt P0DMS8); assay: LOPAC library primary screen: single concentration (10 μM) inhibition of 25 nM CA200645 binding, PHERAstar FS; settings: not given
T1 construct: expressed in transfected cells
T1 sequence (P0DMS8 1-318): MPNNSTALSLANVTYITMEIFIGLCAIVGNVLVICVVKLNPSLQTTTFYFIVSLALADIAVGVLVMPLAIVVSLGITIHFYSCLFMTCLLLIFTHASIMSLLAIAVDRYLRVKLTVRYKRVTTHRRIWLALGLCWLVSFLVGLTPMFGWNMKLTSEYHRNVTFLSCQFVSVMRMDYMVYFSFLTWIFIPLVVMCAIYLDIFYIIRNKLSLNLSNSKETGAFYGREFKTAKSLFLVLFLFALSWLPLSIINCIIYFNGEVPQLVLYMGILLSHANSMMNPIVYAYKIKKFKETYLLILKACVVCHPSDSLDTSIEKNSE

Molecule | % 25 nM CA200645 binding [%]
O=C(O)CCC/C=C\C[C@@H]1[C@@H](/C=C/[C@H](O)C2Cc3ccccc3C2)[C@@H](F)C[C@@H]1O [AL-8810] | 75.0 ± 17.3
O=C(O)C1CCCNC1 (racemic) [(±)-Nipecotic acid] | 101.9 ± 5.9
Cc1cccc(C)c1OCC(C)N.Cl (stereo not drawn) [Mexiletene hydrochloride] | 99.4 ± 6.9
CC(=O)/C=C1\C(=O)N(C)c2ccccc21 [Supercinnamaldehyde] | 98.9 ± 0.6
Clc1ccc2c(c1)C(N1CCNCC1)=Nc1ccccc1O2 [Amoxapine] | 102.6 ± 1.7
C[N+](C)(C)CC#CCOC(=O)Nc1cccc(Cl)c1.[Cl-] [McN-A-343] | 93.8 ± 10.4
O=C1NC(=O)c2cc(Nc3ccccc3)c(Nc3ccccc3)cc21 [DAPH] | 31.8 ± 9.9
COc1ccccc1N1CCN(CCCNc2cc(=O)n(C)c(=O)n2C)CC1 [Urapidil hydrochloride] | 97.1 ± 1.5
OC(CCN1CCCCC1)(c1ccccc1)C1CCCCC1 (stereo not drawn) [Trihexyphenidyl hydrochloride] | 99.4 ± 5.7
O=C(c1ccc(Cl)cc1)N1CCN(c2ccc([N+](=O)[O-])c3ncccc23)CC1 [CPNQ] | 83.4 ± 4.6
CCn1cc(C(=O)[O-])c(=O)c2ccc(C)nc21.[Na+] [Nalidixic acid sodium] | 106.1 ± 13.7
COCCc1ccc(OCC(O)CNC(C)C)cc1.O=C(O)C(O)C(O)C(=O)O (racemic) [(±)-Metoprolol (+)-tartrate] | 83.3 ± 9.2
CC(C)(C)NCC(O)c1ccccc1Cl (stereo not drawn) [Tulobuterol hydrochloride] | 99.9 ± 4.7
c1ccc2c(c1)CC(N1CCN(c3cccc4c3OCCO4)CC1)C2 [S15535] | 97.0 ± 1.3
CC(=O)OC[C@H]1O[C@@H]([S-])[C@H](OC(C)=O)[C@@H](OC(C)=O)[C@@H]1OC(C)=O.CCP(CC)CC.[Au+] [Auranofin] | 82.1 ± 31.0
CN[C@@H]1C[C@@H](c2ccc(Cl)c(Cl)c2)c2ccccc21 [Indatraline hydrochloride] | 103.0 ± 8.6
Cc1cnc(C(=O)NCCc2ccc(S(=O)(=O)NC(=O)NC3CCCCC3)cc2)cn1 [Glipizide] | 96.3 ± 1.2
Cc1cc(Cl)ccc1OCCCC(=O)NO [Droxinostat] | 96.3 ± 1.9
NNCCc1ccccc1 [Phenelzine sulfate] | 99.4 ± 7.6
C1COC(NC(C2CC2)C2CC2)=N1 [Rilmenidine hemifumarate] | 100.9 ± 6.4
COc1cc(C(O)C(=O)O)ccc1O (racemic) [(±)-Vanillylmandelic acid] | 97.4 ± 12.9
NCCc1c[nH]c2ccc(C(N)=O)cc12.O=C(O)/C=C\C(=O)O [5-Carboxamidotryptamine maleate] | 85.7 ± 14.5
CC1=C(C(=O)O)N2C(=O)[C@@H](NC(=O)[C@H](N)C3=CCC=CC3)[C@H]2SC1 [Cephradine] | 95.6 ± 1.1
O=C(O)CN(CCN(CC(=O)O)CC(=O)O)CCN(CC(=O)O)CC(=O)O [Diethylenetriaminepentaacetic acid] | 99.2 ± 10.9
CNC(=O)Oc1ccc2c(c1)[C@]1(C)CCN(C)[C@@H]1N2C [(-)-Physostigmine] | 99.3 ± 6.1
CCCCCCCCCC[Si](C)(C)CCC(=O)NC(Cc1ccc(C)cc1)c1ccccc1 (stereo not drawn) [Sandoz 58-035] | 99.6 ± 12.7

Molecule | % 25 nM CA200645 binding [%]
CN(CC[C@@H](Oc1ccc(C(F)(F)F)cc1)c1ccccc1)CC(=O)[O-].[Li+] [Org 24598 lithium salt] | 94.3 ± 5.8
O.O.O=C(Nc1ccc2c(c1)CCN(Cc1ncn[nH]1)C2)c1ccccc1-c1ccc(C(F)(F)F)cc1 [CP-346086 dihydrate] | 98.2 ± 12.5
CP(=O)(O)C1=CCNCC1 [TPMPA] | 99.7 ± 3.7
CC(N)(Cc1ccc(O)c(O)c1)C(=O)O (racemic) | 86.8 ± 7.1
Br.CCCN1CCc2cc(O)cc3c2[C@H]1Cc1ccc(O)c(O)c1-3 | 89.0 ± 14.4
CC(C)NC[C@H](O)COc1cccc2ccccc12 [(S)-Propranolol hydrochloride] | 100.2 ± 8.9
N=C(N)c1ccc(OCCCCCOc2ccc(C(=N)N)cc2)cc1 [Pentamidine isethionate] | 100.3 ± 6.3
10058-F4 | 75.9 ± 8.5
OCCN1CCN(CCCN2c3ccccc3C=Cc3ccccc32)CC1 [Opipramol dihydrochloride] | 100.5 ± 7.4
Cl.O[Si](CCCN1CCCCC1)(c1ccc(F)cc1)C1CCCCC1 (stereo not drawn) | 104.8 ± 7.7
O=P1(N(CCCl)CCCl)NCCCO1 (stereo not drawn) [Cyclophosphamide monohydrate] | 79.2 ± 18.9
CC(C)NCC(O)c1ccc(O)c(O)c1.Cl (single isomer, unassigned; (-)) [(-)-Isoproterenol hydrochloride] | 98.6 ± 14.4
CCCN(CCC)CCc1cccc2c1CC(=O)N2 [Ropinirole hydrochloride] | 107.5 ± 15.4
O=c1[nH]c2ccccc2n1CCCN1CCC(n2c(=O)[nH]c3cc(Cl)ccc32)CC1 [Domperidone] | 99.6 ± 10.5
OCCN(CCO)c1nc(N2CCCCC2)c2nc(N(CCO)CCO)nc(N3CCCCC3)c2n1 [Dipyridamole] | 78.8 ± 14.8
CCN1CCCC1CNC(=O)c1cc(S(=O)(=O)CC)c(N)cc1OC (stereo not drawn) [Amisulpride] | 98.0 ± 5.3
NNC(=O)c1ccc(O)cc1 [4-Hydroxybenzhydrazide] | 105.3 ± 8.4
Nc1nnc(-c2cccc(Cl)c2Cl)c(N)n1 [Lamotrigine] | 93.6 ± 9.2
N[C@H](C(=O)O)[C@H]1C[C@@H]1C(=O)O | 107.7 ± 15.6
CN(C)C(=O)N=NC(=O)N(C)C [N,N,N',N'-Tetramethylazodicarboxamide] | 95.9 ± 2.2
N#C/C(=C\c1ccc(O)c(O)c1)C(=O)c1ccc(O)c(O)c1 [Tyrphostin AG 538] | 90.2 ± 14.0
S=C([S-])OC1CC2CC1C1CCCC21.[K+] [D-609 potassium] | 95.5 ± 4.1
Ro 20-1724 | 108.8 ± 2.1
NCC(CP(=O)(O)O)c1ccc(Cl)cc1 (stereo not drawn) [Phaclofen] | 107.2 ± 18.9
COc1ccc(CNC(=O)/C=C/c2ccc3[nH]cc(CCN(C)C)c3c2)cc1 [GR 46611] | 100.9 ± 13.0
O=[N+]([O-])c1ccc2c(c1)S(=O)(=O)C=C2 [Stattic] | 107.3 ± 19.6

same assay, conditions: 10 μM compound, 25 nM CA200645, A3AR CHO cells

Molecule | hit in LOPAC primary screen (inhibited the binding of CA200645 by >40%)
C#CCn1c(=O)c2c(ncn2C)n(C)c1=O [DMPX, reference compound] | identified

same assay, conditions: % of control wells (1% DMSO and 25 nM CA200645); compounds at 10 µM; whole live cells expressing A3AR; mean ± SD, three experiments in duplicate

% 25 nM CA200645 binding [%] | Molecule
96.6 ± 12.8 | NCCSSCCN [Cystamine dihydrochloride]

same assay, conditions: % of control wells (1% DMSO and 25 nM CA200645); compounds at 10 µM; whole live cells expressing the A3AR; mean ± SD, three experiments in duplicate

% 25 nM CA200645 binding [%] | Molecule
97.3 ± 10.2 | CCn1ccnc1CC1COc2ccccc2O1 (stereo not drawn) [Imiloxan hydrochloride]
79.4 ± 12.5 | Cc1nc2sccn2c(=O)c1CCN1CCC(=C(c2ccc(F)cc2)c2ccc(F)cc2)CC1 [Ritanserin]

same assay, conditions: compounds tested at 10 µM; % of control wells (1% DMSO and 25 nM CA200645); whole live cells expressing the A3AR; mean ± SD, three experiments in duplicate

% 25 nM CA200645 binding [%] | Molecule
102.0 ± 13.0 | CSC(N)=NCCC[C@H](N)C(=O)O [S-Methyl-L-thiocitrulline acetate]
